According to the OligoGym collection:
After the bases stand the sugars from the 5' end (letter, count) and the backbone: PS all phosphorothioate, else s phosphorothioate and o phosphodiester by linkage. Methylation of C is not given here. e = 2'-O-(2-methoxyethyl) (MOE); k = constrained ethyl (cEt); d = 2'-deoxy (DNA); m = 2'-O-methyl

Biological target: HSD17B13
Settings: ASO, HepaRG

Sequence	target mRNA inhibition (1 µM) [%]	further results
ATTTTTGGTGAACCCA (sugars k3 d10 k3, PS)	8	–
ATGTCAGACCTCTGTG (sugars k3 d10 k3, PS)	19	–
TTGGTAAGTATTCCAT (sugars k3 d9 k3 e1, PS)	28	–
ATGTCTTGGTAATCTC (sugars k3 d10 k3, PS)	23	–
ATTGAATTCACTATCT (sugars k3 d10 k3, PS)	31	–
CGTTUGACTGCTGCTA (sugars k3 d1 m1 d8 k3, PS)	54	–
TCTCAGAGTTCAGGCA (sugars k3 d10 k3, PS)	54	–
GGCTAGGATTAATCAT (sugars k3 d10 k3, PS)	44	–
TTCCATCTATCAGACT (sugars k3 d10 k3, PS)	33	–
TAGCAGCTAAAATCCA (sugars k3 d10 k3, PS)	66	–
TAAAATATGTCCAGGT (sugars k3 d10 k3, PS)	75	–
AGTAATGAGAACAATC (sugars k3 d10 k3, PS)	45	–
CCTTCTGGTTCAGTCC (sugars k3 d10 k3, PS)	72	target mRNA inhibition (0.02 µM): 9%; target mRNA inhibition (0.078 µM): 20%; target mRNA inhibition (0.313 µM): 39%; target mRNA inhibition (1.25 µM): 68%; target mRNA inhibition (5 µM): 89%
TCGATCCTATATACAT (sugars k3 d10 k3, PS)	40	–
GTTTTTAAGAGGCATG (sugars k3 d9 k3 e1, PS)	78	target mRNA inhibition (0.02 µM): 12%; target mRNA inhibition (0.078 µM): 17%; target mRNA inhibition (0.313 µM): 41%; target mRNA inhibition (1.25 µM): 64%; target mRNA inhibition (5 µM): 82%
TAGTGGACTTCATTAG (sugars k3 d9 k3 e1, PS)	22	–
GTGGGAGTCGGATTAT (sugars k3 d10 k3, PS)	37	–
AGATAAAGCTGCCTGC (sugars k3 d10 k3, PS)	48	–
TATATACATCAACTCC (sugars k3 d10 k3, PS)	61	–
GCTGCTAGTGCCAAAC (sugars k3 d9 k3 e1, PS)	62	–
GAGGTAGCTTTTGTCC (sugars k3 d10 k3, PS)	59	–
TATTCTGTGGCATGGC (sugars k3 d9 k3 e1, PS)	74	target mRNA inhibition (0.02 µM): 10%; target mRNA inhibition (0.078 µM): 0%; target mRNA inhibition (0.313 µM): 21%; target mRNA inhibition (1.25 µM): 55%; target mRNA inhibition (5 µM): 68%

Sequence	target mRNA inhibition (1 µM) [%]	further results
CCCATAACCATAGGAC (sugars k3 d10 k3, PS)	47	–
CAAAGTTAATAGGACT (sugars k3 d10 k3, PS)	50	–
CAATTCACATATGTGA (sugars k3 d10 k3, PS)	11	–
TATGAAGTTAGTATAG (sugars k3 d10 k3, PS)	30	–
TACAGTTCCTTTTCCT (sugars k3 d10 k3, PS)	68	–
GTGAACCCAGTATTCA (sugars k3 d10 k3, PS)	1	–
TTAATTTTCGGGTTCT (sugars k3 d10 k3, PS)	31	–
TCTATACAAAGGCAGT (sugars k3 d10 k3, PS)	53	–
TACCAATATGGGATGA (sugars k3 d10 k3, PS)	1	–
TTATGTGATTGAGTTC (sugars kkdddddddddkekek, PS)	21	–
TGTAGTGGGAGTCGGA (sugars kkdddddddddkekek, PS)	27	–
TGACAATGTGCAGCTC (sugars k3 d10 k3, PS)	64	–
CCACTGTGACGATGTG (sugars k3 d10 k3, PS)	0	–
GCAGAAATTCACCTTG (sugars k3 d10 k3, PS)	74	target mRNA inhibition (0.02 µM): 5%; target mRNA inhibition (0.078 µM): 19%; target mRNA inhibition (0.313 µM): 26%; target mRNA inhibition (1.25 µM): 70%; target mRNA inhibition (5 µM): 88%
CGTTAGGTTTCCAAAT (sugars k3 d10 k3, PS)	0	–
AGGATAGTCCATGCAA (sugars k3 d10 k3, PS)	64	–
AAGGCCTGAAGTTCTG (sugars k3 d10 k3, PS)	5	–
AACAATCTCCCCAGCC (sugars k3 d10 k3, PS)	59	–
GCACTCAGCTGCAGTT (sugars k3 d10 k3, PS)	29	–
ACAGTAAAATTATGCC (sugars kkdddddddddkekek, PS)	28	–
TATACTTTTCCGTCTC (sugars k3 d10 k3, PS)	71	target mRNA inhibition (0.02 µM): 0%; target mRNA inhibition (0.078 µM): 22%; target mRNA inhibition (0.313 µM): 44%; target mRNA inhibition (1.25 µM): 79%; target mRNA inhibition (5 µM): 83%
CCAGATTGCACAAACC (sugars k3 d10 k3, PS)	72	target mRNA inhibition (0.02 µM): 0%; target mRNA inhibition (0.078 µM): 17%; target mRNA inhibition (0.313 µM): 51%; target mRNA inhibition (1.25 µM): 78%; target mRNA inhibition (5 µM): 92%

Sequence	target mRNA inhibition (1 µM) [%]	further results
TATTATGTGATTGAGT (sugars kkdddddddddkekek, PS)	65	–
TTATGAAGTTAGTATA (sugars k3 d10 k3, PS)	31	–
TAAGTTATTATCCCCA (sugars k3 d10 k3, PS)	70	–
CTCGGGAAGTTTAGAC (sugars k3 d10 k3, PS)	47	–
GAGTCGGTCACCTTTC (sugars kkdddddddddkekek, PS)	62	–
TTTACTCACTTCTGGT (sugars k3 d10 k3, PS)	30	–
TTCTCAAGGAGTACTT (sugars k3 d10 k3, PS)	76	–
GTGTTCTTGTTGATAT (sugars k3 d10 k3, PS)	81	target mRNA inhibition (0.02 µM): 13%; target mRNA inhibition (0.078 µM): 25%; target mRNA inhibition (0.313 µM): 59%; target mRNA inhibition (1.25 µM): 80%; target mRNA inhibition (5 µM): 93%
TTAAGATACCCAGGTT (sugars k3 d9 k3 e1, PS)	51	–
GTAATTAATCTTGTTC (sugars k3 d10 k3, PS)	52	–
TCCACTTTTGGTGGAC (sugars k3 d10 k3, PS)	16	–
GTTTATGTAAGCACAG (sugars k3 d10 k3, PS)	67	–
ATATTCCAGGATTTGC (sugars k3 d10 k3, PS)	26	–
TTAAGATACCCAGGTT (sugars kkdddddddddkekek, PS)	48	–
ATGTATCTTATAAGAC (sugars kkdddddddddkekek, PS)	18	–
AATGCTACTTGAACAG (sugars k3 d9 k3 e1, PS)	50	–
TGTGATTGAGTTCTCC (sugars k3 d1 m1 d8 k3, PS)	34	–
TATACTGAAGGCTGTG (sugars k3 d10 k3, PS)	44	–
CGTTTATCATATGCTA (sugars k3 d10 k3, PS)	88	target mRNA inhibition (0.02 µM): 9%; target mRNA inhibition (0.078 µM): 29%; target mRNA inhibition (0.313 µM): 57%; target mRNA inhibition (1.25 µM): 77%; target mRNA inhibition (5 µM): 86%
CGTTTACTCACTTCTG (sugars k3 d10 k3, PS)	21	–
TCTCTTAGCTGTGCAC (sugars kkdddddddddkekek, PS)	36	–
TTCCATCTATCAGACT (sugars kkdddddddddkekek, PS)	33	–

Sequence	target mRNA inhibition (1 µM) [%]	further results
AAGTTCTGATGTCAGA (sugars k3 d10 k3, PS)	7	–
GGATATGTCATCTAAA (sugars k3 d10 k3, PS)	68	–
GACAGAGCAATTTACT (sugars k3 d10 k3, PS)	55	–
TGTAGTGGGAGTCGGA (sugars k3 d10 k3, PS)	62	–
TTAGAATACGCTGAGA (sugars k3 d10 k3, PS)	48	–
CATAACCATAGGACAT (sugars k3 d10 k3, PS)	41	–
GTTTAGATTGCATAAG (sugars k3 d10 k3, PS)	46	–
TTAGTATTTGGGTGTT (sugars k3 d10 k3, PS)	29	–
ATCAACCTGCACACCA (sugars k3 d10 k3, PS)	63	–
GTGTAAGCTGAGAGTT (sugars k3 d1 m1 d8 k3, PS)	55	–
GATGGTAAGTCAAATA (sugars k3 d10 k3, PS)	85	target mRNA inhibition (0.02 µM): 22%; target mRNA inhibition (0.078 µM): 34%; target mRNA inhibition (0.313 µM): 47%; target mRNA inhibition (1.25 µM): 74%; target mRNA inhibition (5 µM): 90%
ATACTTTTCCGTCTCA (sugars k3 d10 k3, PS)	90	target mRNA inhibition (0.02 µM): 10%; target mRNA inhibition (0.078 µM): 41%; target mRNA inhibition (0.313 µM): 71%; target mRNA inhibition (1.25 µM): 90%
AGTGCATCTTAAGATA (sugars k3 d9 k3 e1, PS)	12	–
TTTGAACCGTATTCCC (sugars k3 d10 k3, PS)	69	target mRNA inhibition (0.02 µM): 36%; target mRNA inhibition (0.078 µM): 41%; target mRNA inhibition (0.313 µM): 57%; target mRNA inhibition (1.25 µM): 79%; target mRNA inhibition (5 µM): 85%
GTTCATTCGAATTTCT (sugars k3 d10 k3, PS)	76	target mRNA inhibition (0.02 µM): 0%; target mRNA inhibition (0.078 µM): 19%; target mRNA inhibition (0.313 µM): 60%; target mRNA inhibition (1.25 µM): 87%; target mRNA inhibition (5 µM): 88%
GATAAGAAGAGAGCTC (sugars k3 d10 k3, PS)	36	–
GAAACCTTCATGCTAG (sugars k3 d10 k3, PS)	31	–
TCCTTATACTGAAGGC (sugars k3 d10 k3, PS)	22	–
AAGGAGCCAGTTATGA (sugars k3 d10 k3, PS)	57	–
TAAACATCTCTGGGAC (sugars kkdddddddddkekek, PS)	39	–
CCCAACCAAACTTCCA (sugars k3 d10 k3, PS)	62	–
GTTACCAGAGCATTCA (sugars k3 d10 k3, PS)	73	target mRNA inhibition (0.02 µM): 19%; target mRNA inhibition (0.078 µM): 36%; target mRNA inhibition (0.313 µM): 63%; target mRNA inhibition (1.25 µM): 74%; target mRNA inhibition (5 µM): 92%
